# Test results taken from ChEMBL document CHEMBL1201862, “PubChem BioAssay data set” (2004).
#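 The compound was tested at five concentrations on cells cultured in 96-well plates, with a 48-hour exposure period. GI50: concentration for 50% inhibition of growth.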 Activity calls are given as the source filed them. No stated cut-off is given here; in the data, active = GI50 up to about 1.1 µM and inactive = higher.
# Key:
# Test in all cases: DTP human tumour cell line panel, 48 h
# [1] = tested on: LXFL 529
# [2] = tested on: HOP-62
# [3] = tested on: SR
# [4] = tested on: HT-29
# [5] = tested on: SN12C
# [6] = tested on: MOLT-4
# [7] = tested on: HL-60
# [8] = tested on: HOP-18
# [9] = tested on: OVCAR-3
# [10] = tested on: A549
# [11] = tested on: ACHN
# [12] = tested on: RXF 631
# [13] = tested on: K562
# [14] = tested on: SF-295
# [15] = tested on: OVCAR-5
# [16] = tested on: RXF 393
# [17] = tested on: NCI-H23
# [18] = tested on: SF-268
# [19] = tested on: DMS-273
# [20] = tested on: EKVX
# [21] = tested on: SF-539
# [22] = tested on: UO-31
# [23] = tested on: UACC-257
# [24] = tested on: HCT-116
# [25] = tested on: XF498
# [26] = tested on: TK-10
# [27] = tested on: U-251
# [28] = tested on: Malme-3M
# [29] = tested on: SK-MEL-28
# [30] = tested on: NCI-H460
# [31] = tested on: NCI-H226
# [32] = tested on: M19-MEL
# [33] = tested on: OVCAR-8
# [34] = tested on: SK-MEL-2
# [35] = tested on: HOP-92
# [36] = tested on: SNB-78
# [37] = tested on: SW-620
# [38] = tested on: COLO 205
# [39] = tested on: HCT-15
# [40] = tested on: RPMI-8226
# [41] = tested on: KM-20L2
# [42] = tested on: CCRF-CEM
# [43] = tested on: 786-0
# [44] = tested on: SNB-19
# [45] = tested on: HCC 2998
# [46] = tested on: KM12
# [47] = tested on: OVCAR-4
# [48] = tested on: DLD-1
# [49] = tested on: SK-OV-3
# [50] = tested on: IGROV-1
# [51] = tested on: SNB-75
# [52] = tested on: M14
# [53] = tested on: LOX IMVI
# [54] = tested on: DMS-114
# [55] = tested on: UACC-62
# [56] = tested on: A498
# [57] = tested on: NCI-H522
structure (smiles),measurement,setting,value
Clc1ccc(CNc2nc3ccccc3nc2-c2cccs2)c(Cl)c1,GI50,[1],> 100 µM (inactive)
same,GI50,[2],> 100 µM (inactive)
same,GI50,[3],31.2 µM (inactive)
same,GI50,[4],61 µM (inactive)
same,GI50,[5],> 100 µM (inactive)
same,GI50,[6],27.9 µM (inactive)
same,GI50,[7],21.9 µM (inactive)
same,GI50,[8],> 100 µM (inactive)
same,GI50,[9],> 100 µM (inactive)
same,GI50,[10],97.3 µM (inactive)
same,GI50,[11],75.2 µM (inactive)
same,GI50,[12],67.3 µM (inactive)
same,GI50,[13],> 100 µM (inactive)
same,GI50,[14],> 100 µM (inactive)
same,GI50,[15],> 100 µM (inactive)
same,GI50,[16],73.8 µM (inactive)
same,GI50,[17],68.5 µM (inactive)
same,GI50,[18],> 100 µM (inactive)
same,GI50,[19],86.7 µM (inactive)
same,GI50,[20],> 100 µM (inactive)
same,GI50,[21],> 100 µM (inactive)
same,GI50,[22],> 100 µM (inactive)
same,GI50,[23],> 100 µM (inactive)
same,GI50,[24],49 µM (inactive)
same,GI50,[25],26.7 µM (inactive)
same,GI50,[26],> 100 µM (inactive)
same,GI50,[27],89.3 µM (inactive)
same,GI50,[28],> 100 µM (inactive)
same,GI50,[29],> 100 µM (inactive)
same,GI50,[30],> 100 µM (inactive)
same,GI50,[31],> 100 µM (inactive)
same,GI50,[32],66.8 µM (inactive)
same,GI50,[33],> 100 µM (inactive)
same,GI50,[34],> 100 µM (inactive)
same,GI50,[35],13.1 µM (inactive)
same,GI50,[36],> 100 µM (inactive)
same,GI50,[37],> 100 µM (inactive)
same,GI50,[38],50 µM (inactive)
same,GI50,[39],38.1 µM
same,GI50,[40],56.1 µM (inactive)
same,GI50,[41],49.3 µM (inactive)
same,GI50,[42],98.9 µM (inactive)
same,GI50,[43],> 100 µM (inactive)
same,GI50,[44],> 100 µM (inactive)
same,GI50,[45],43.5 µM (inactive)
O=C(Cc1nc2ccccc2s1)C(=O)Nc1ccc(Cl)cc1Cl,GI50,[1],> 100 µM (inactive)
same,GI50,[2],39.9 µM (inactive)
same,GI50,[3],> 100 µM (inactive)
same,GI50,[4],> 100 µM (inactive)
same,GI50,[5],> 100 µM (inactive)
same,GI50,[6],> 100 µM (inactive)
same,GI50,[9],> 100 µM (inactive)
same,GI50,[10],> 100 µM (inactive)
same,GI50,[46],> 100 µM (inactive)
same,GI50,[11],> 100 µM (inactive)
same,GI50,[12],> 100 µM (inactive)
same,GI50,[13],> 100 µM (inactive)
same,GI50,[14],> 100 µM (inactive)
same,GI50,[47],> 100 µM (inactive)
same,GI50,[15],> 100 µM (inactive)
same,GI50,[17],54 µM (inactive)
same,GI50,[18],> 100 µM (inactive)
same,GI50,[19],> 100 µM (inactive)
same,GI50,[21],> 100 µM (inactive)
same,GI50,[22],> 100 µM (inactive)
same,GI50,[23],> 100 µM (inactive)
same,GI50,[24],> 100 µM (inactive)
same,GI50,[25],> 100 µM (inactive)
same,GI50,[26],> 100 µM (inactive)
same,GI50,[27],> 100 µM (inactive)
same,GI50,[28],> 100 µM (inactive)
same,GI50,[29],> 100 µM (inactive)
same,GI50,[48],> 100 µM (inactive)
same,GI50,[30],> 100 µM (inactive)
same,GI50,[31],77.6 µM (inactive)
same,GI50,[32],> 100 µM (inactive)
same,GI50,[33],> 100 µM (inactive)
same,GI50,[49],> 100 µM (inactive)
same,GI50,[34],> 100 µM (inactive)
same,GI50,[35],65.8 µM (inactive)
same,GI50,[50],> 100 µM (inactive)
same,GI50,[36],> 100 µM (inactive)
same,GI50,[37],> 100 µM (inactive)
same,GI50,[38],> 100 µM (inactive)
same,GI50,[39],> 100 µM
same,GI50,[40],> 100 µM (inactive)
same,GI50,[51],47.4 µM (inactive)
same,GI50,[52],> 100 µM (inactive)
same,GI50,[41],> 100 µM (inactive)
same,GI50,[43],> 100 µM (inactive)
same,GI50,[44],> 100 µM (inactive)
same,GI50,[53],> 100 µM (inactive)
same,GI50,[45],> 100 µM (inactive)
O=S(O)CCCSSSCCCS(=O)O,GI50,[1],> 100 µM (inactive)
same,GI50,[2],> 100 µM (inactive)
same,GI50,[54],> 100 µM (inactive)
same,GI50,[3],> 100 µM (inactive)
same,GI50,[4],> 100 µM (inactive)
same,GI50,[5],> 100 µM (inactive)
same,GI50,[6],> 100 µM (inactive)
same,GI50,[7],> 100 µM (inactive)
same,GI50,[9],> 100 µM (inactive)
same,GI50,[46],> 100 µM (inactive)
same,GI50,[11],> 100 µM (inactive)
same,GI50,[12],> 100 µM (inactive)
same,GI50,[13],> 100 µM (inactive)
same,GI50,[47],> 100 µM (inactive)
same,GI50,[15],> 100 µM (inactive)
same,GI50,[16],> 100 µM (inactive)
same,GI50,[17],> 100 µM (inactive)
same,GI50,[18],> 100 µM (inactive)
same,GI50,[20],> 100 µM (inactive)
same,GI50,[21],> 100 µM (inactive)
same,GI50,[22],> 100 µM (inactive)
same,GI50,[55],> 100 µM (inactive)
same,GI50,[23],> 100 µM (inactive)
same,GI50,[24],> 100 µM (inactive)
same,GI50,[56],> 100 µM (inactive)
same,GI50,[25],> 100 µM (inactive)
same,GI50,[26],> 100 µM (inactive)
same,GI50,[27],> 100 µM (inactive)
same,GI50,[28],> 100 µM (inactive)
same,GI50,[57],> 100 µM (inactive)
same,GI50,[29],> 100 µM (inactive)
same,GI50,[48],> 100 µM (inactive)
same,GI50,[30],> 100 µM (inactive)
same,GI50,[32],> 100 µM (inactive)
same,GI50,[49],> 100 µM (inactive)
same,GI50,[34],> 100 µM (inactive)
same,GI50,[36],> 100 µM (inactive)
same,GI50,[51],> 100 µM (inactive)
same,GI50,[52],> 100 µM (inactive)
same,GI50,[41],> 100 µM (inactive)
same,GI50,[42],> 100 µM (inactive)
same,GI50,[44],> 100 µM (inactive)
same,GI50,[53],> 100 µM (inactive)
same,GI50,[45],> 100 µM (inactive)
